Test results reported in paper PMC11275179, “Superior Anticancer and Antifungal Activities of New Sulfanyl-Substituted Niclosamide Derivatives” (Biomedicines, 2024).
Converted amounts (≈) assume the structure as drawn. “And” between values parts separate entries of the source, which are not always exact repeats. Identical values can stand only once. Like-named read-outs stand apart in the source and are kept apart here.

Tests used:
SK-GT-4 EAC cells = assay: MTT proliferation assay, SK-GT-4 cells; type: cell-based; details: read-out: Antiproliferative activity IC50, SK-GT-4
Description: (§1) The FLO-1, SK-GT-4, and THP-1 cell lines were a gift from Dr. Shrikant Anant’s laboratory. Cells were grown in 10% fetal bovine serum (Fisher Scientific#FB12999102, Pittsburgh, PA, USA) and 1% antibiotic/antimycotic agent (Corning, Tewksbury, MA, USA) in RPMI 1640 media mixed with […] HEPES, L-glutamine (Corning, MA, USA). The cell lines were grown in a 5% CO2 incubator at 37 °C and used below 15 passages for the experiments.
(§2) The proliferation assay used a 3-(4,5-dimethylthiazol-2-yl)-2,5-diphenyltetrazolium bromide (MTT) assay. Briefly, 5000 FLO-1 and SK-GT-4 cells were counted and seeded in each well in 96-well plates. Post 24 h of incubation, EAC cells were treated with multiple concentrations (0–10 μM) of niclosamide (Cayman chemical#10649, Ann Arbor, MI, USA) and its analogs. At respective time points, 10 μL of stock MTT reagent (Millipore Sigma, Bedford, MA, USA) (3 mg/mL) was added to each well and incubated for 1–2 h under the dark at 37 °C. After incubation, the purple formazan crystals were dissolved in equal volumes of DMSO, and the absorbance of the resulting clear solutions was recorded at 570 nm using a microplate reader. A CCK-8 (Abcam, Cat no. ab228554, Burlingame, CA, USA) assay was used for the THP-1 cells. Briefly, 5000 cells were plated in every well of a 96-well plate. After 24 h of plating, THP-1 cells were treated with niclosamide and compound 3a. After the respective time point, an equal amount of CCK-8 reagent was pipetted to the wells and incubated for one hour in an incubator, and finally, the absorbance was recorded at 450 nm. The percent change in the proliferation was calculated by comparing the cell viability of the treated groups to the untreated control cells.

FLO-1 EAC cells = assay: MTT proliferation assay, FLO-1 cells; type: cell-based; details: read-out: Antiproliferative activity IC50, FLO-1
Description: as §1, §2

M. mycetomatis strains = assay: In vitro susceptibility testing (MIC), panel of eight strains; type: cell-based, Madurella mycetomatis; details: for MIC50: concentration at which 50% of the eight isolates were completely inhibited
Description: (§3) The antifungal activity of the compounds was tested against a geographically and genetically diverse set of M. mycetomatis isolates. These included the MM55 strain from Sudan, strains I1, I3, and […] from India, strain P1 from Mali, strain SO1 from Somalia, strain Peru72012 from Peru, and strain CBS247.48 whose country of origin was unknown. All isolates were originally obtained from patients and identified and maintained in the Erasmus Medical Centre, Rotterdam, The Netherlands. In vitro susceptibility testing was performed as reported previously. The only difference was that tetrazolium compound 3-(4,5-dimethylthiazol-2-yl)-5-(3-carboxymethoxyphenyl)-2-(4-sulfophenyl)-2H-tetrazolium salt (MTS) was used as a viability dye in endpoint reading instead of 2,3-bis-(2-methoxy-4-nitro-5-sulfophenyl)-2H-tetrazolium-5-carboxanilide salt (XTT).

HepG2 hepatoma cells = assay: HepG2 hepatotoxicity, resazurin assay; type: cell-based; details: 72 h, two independent experiments
Description: (§4) HepG2 hepatoma cells were used for hepatotoxicity studies. Cells were provided by ECACC with a certificate of analysis confirming STR profiling and were mycoplasma tested every time new stabilates were made. Cells were screened utilizing a resazurin-based fluorescence assay (λex = 540 nm, λem = 590 nm) in a 384-well plate format. HepG2 cells (1 × 10^5 cells/mL) were incubated with the compound in a 10-point, 1 in 3 dilution series from a top concentration of 100 µM, for 72 h. After the 72 h incubation period, resazurin (0.27 mM in a cell culture medium) was added and the plates were incubated for a further 3–4 h before the fluorescent signal was measured using PHERAstar (BMG Labtech, Ortenberg, Germany). IC50 values were calculated from two independent experiments.

[1] = HepG2 hepatotoxicity, resazurin assay; type: cell-based; details: human, HepG2 hepatoma cells, two independent experiments
Description: as §4

Microsomal clearance = type: in vitro ADME; details: for half-life at 0.5 µM: female, CD1, pH 7.4, mouse liver microsomes, read-out: Microsomal T ½; for Microsomal Clearance: mouse liver microsomes, 0.5 µM
Description: Liver microsomes were applied to study the microsomal clearance of test compounds. The test compound (0.5 µM) was incubated with female CD1 mouse liver microsomes (0.5 mg/mL, 50 mM potassium phosphate buffer, pH 7.4), and the reaction started with the addition of excess NADPH (8 mg/mL, 50 mM potassium phosphate buffer, and pH 7.4). Immediately, at time 0, then at 3, 6, 9, 15, and 30 min, an aliquot of the incubation mixture was removed and mixed with acetonitrile to stop the reaction. An internal standard (IS) was added to all samples, the samples were centrifuged to sediment precipitated protein, and the plates were then sealed prior to UPLC-MSMS analysis (Xevo TQ-S Micro, Waters^TM, Milford, MA, USA). An exponential decay fit was created from the response ratio (compound peak area/IS peak area) and incubation time, and subsequently, Clint (mL/min/mg protein) was calculated by multiplying the rate constant (k) of the exponential decay curve and incubation conditions (incubation volume/mg protein added).

Kinetic solubility = type: physicochemical; details: aqueous buffer
Description: Kinetic solubility was tested using 10 mM stock solutions of test compounds in DMSO followed by dilution with an aqueous buffer to a final concentration of 250 µM and vortexed at 900 rpm for 24 h. Then, the samples were filtered and analyzed by UHPLC (Shimadzu Nexera X2, Milton Keynes, UK).

[2] = tested on: M. mycetomatis MM55 strain; assay: In vivo activity in M. mycetomatis-infected G. mellonella larvae; set-up: species or system Galleria mellonella; d10 AUC / d10 ΔAUC: unit not given here; details: 20 µM; for d10 AUC: area under the survival curve; for d10 Survival / d10 Survival Corrected with Control: day 10; for d10 ΔAUC: versus control
Description: (§5) In vivo efficacy was determined in larvae of the greater wax moth Galleria mellonella. Since G. mellonella is an invertebrate, it is not subject to directive 2010/63/EU of the European law on animal testing. Larvae were housed in the dark in Petri dishes with Whatman paper. To determine the toxicity in G. mellonella larvae, test compounds were injected on three consecutive days at 24 h intervals in the last pro-leg of healthy larvae followed by monitoring of the survival for ten days. If no significant difference between the control and treated larvae was observed, the compound was considered nontoxic. Larvae were further used in infection studies to determine the in vivo activity of test compounds against M. mycetomatis according to our previously published protocol.

[3] = tested on: Galleria mellonella larvae; assay: Toxicity in healthy Galleria mellonella larvae; type: in vivo; details: 20 µM, 10 days
Description: as §5

[4] = tested on: M. mycetomatis MM55 strain; assay: In vitro susceptibility testing (MTS), MM55 strain; type: cell-based, Madurella mycetomatis; details: for IC90: read-out: Antifungal activity IC90; for IC50: read-out: Antifungal activity IC50
Description: as §3

CHI logD = type: physicochemical; details: reversed-phase UHPLC
Description: CHI (chromatographic hydrophobicity index) logD was determined according to previously published methods. Test compounds were prepared as 0.5 mM solutions in 50:50 acetonitrile/water and analyzed by reversed-phase UHPLC (wavelength 254 nm). By plotting the retention time of a set of reference compounds against known CHI values, the CHI value of test compounds was calculated according to their retention time, and this was then further converted to CHI logD.

[5] = tested on: M. mycetomatis SO1 isolate; set-up: method as in PMID 34209118; details: read-out: IC50 against the Somalian SO1 isolate; cited from earlier work
[6] = Madurella mycetomatis, CBS247, strain CBS247.48, read-out: MIC, CBS247.48
[7] = Madurella mycetomatis, strain I1, read-out: MIC, I1
[8] = Madurella mycetomatis, strain I3, read-out: MIC, I3
[9] = Madurella mycetomatis, strain I11, read-out: MIC, I11
[10] = Madurella mycetomatis, strain MM55, read-out: MIC, MM55
[11] = Madurella mycetomatis, strain P1, read-out: MIC, P1
[12] = Madurella mycetomatis, strain Peru72012, read-out: MIC, Peru72012
[13] = Madurella mycetomatis, strain SO1, read-out: MIC, SO1
[14] = Madurella mycetomatis, MM55STRAIN

Row | Structure (SMILES) | IC50 (SK-GT-4 EAC cells; SKGT4, 72 h) | MIC (M. mycetomatis strains; [6]) | MIC (M. mycetomatis strains; [7]) | MIC (M. mycetomatis strains; [8]) | MIC (M. mycetomatis strains; [9]) | MIC (M. mycetomatis strains; [10]) | MIC (M. mycetomatis strains; [11]) | MIC (M. mycetomatis strains; [12]) | MIC (M. mycetomatis strains; [13]) | MIC50 (M. mycetomatis strains; Madurella mycetomatis) | IC50 (FLO-1 EAC cells; FLO-1, 72 h) | d10 AUC [2] | d10 Survival Corrected with Control ([2]; infected larvae) | d10 ΔAUC [2] | IC90 [4, 14] | IC50 [4, 14] | further results
1 | N.N.[Cl][Pt][Cl] [Cisplatin, reference compound] | – | – | – | – | – | – | – | – | – | – | – | – | – | – | – | – | IC50 (SK-GT-4 EAC cells; 72 h): 2280 ± 140 nM; IC50 (FLO-1 EAC cells; 72 h): 1700 ± 1480 nM
2 | O=C(Nc1ccc(S(F)(F)(F)(F)F)cc1)c1cc(Cl)ccc1O [Compound 2a, 5-Chloro-2-hydroxy-N-(4-pentafluorosulfanylphenyl)benzamide] | 1800 ± 170 nM | 0.5 µM (≈ 0.187 µg/mL) | 0.5 µM (≈ 0.187 µg/mL) | 0.5 µM (≈ 0.187 µg/mL) | 0.5 µM (≈ 0.187 µg/mL) | 0.5 µM (≈ 0.187 µg/mL) | 0.5 µM (≈ 0.187 µg/mL) | 0.3 µM (≈ 0.112 µg/mL) | 0.5 µM (≈ 0.187 µg/mL) | 0.5 µM (≈ 0.187 µg/mL) | 1620 ± 550 nM | 445 | 13.33% | 113.3 | 1900 ± 600 nM | – | IC50 (HepG2 hepatoma cells): 2260 ± 310 nM; IC50 at 72 h [1]: 2300 to 3000 nM; half-life at 0.5 µM (Microsomal clearance): > 30 min; Microsomal Clearance (Microsomal clearance): 0.02 mL/min/mg Protein; solubility kinetic at 24 h (Kinetic solubility; kinetic from dmso stock): 0.67 µM (≈ 0.25 µg/mL); d10 Survival ([2]; infected larvae): 26.7% and 26.67%; Toxicity to non-infected G. mellonella larvae [3]: not toxic; IC50 [4]: 300 ± 100 nM; chromatographic logD (CHI logD): 3.9
3 | O=C(Nc1ccc(SC(F)(F)F)cc1)c1cc(Cl)ccc1O [Compound 2b, 5-Chloro-2-hydroxy-N-(4-trifluoromethylsulfanylphenyl)benzamide] | – | 0.5 µM (≈ 0.174 µg/mL) | 0.5 µM (≈ 0.174 µg/mL) | 0.5 µM (≈ 0.174 µg/mL) | 0.5 µM (≈ 0.174 µg/mL) | 0.5 µM (≈ 0.174 µg/mL) | 0.3 µM (≈ 0.104 µg/mL) | 0.3 µM (≈ 0.104 µg/mL) | 0.5 µM (≈ 0.174 µg/mL) | 0.5 µM (≈ 0.174 µg/mL) | – | 451.7 | −3.33% | 120 | – | – | IC50 (SK-GT-4 EAC cells; 72 h): 2020 ± 140 nM; IC50 (FLO-1 EAC cells; 72 h): 2200 ± 360 nM; IC50 (HepG2 hepatoma cells): 2990 ± 110 nM; IC50 at 72 h [1]: 2300 to 3000 nM; half-life at 0.5 µM (Microsomal clearance): 6.66 min; Microsomal Clearance (Microsomal clearance): 0.21 mL/min/mg Protein; Kinetic solubility (Kinetic solubility; 24 h): stability issues; Effect on survival between days three and six ([2]; infected larvae): considerable temporary effect; d10 Survival ([2]; infected larvae): no increased survival; melting point: 200 to 201 °C; Toxicity to non-infected G. mellonella larvae [3]: not toxic; IC50 [4]: 200 ± 100 nM; IC90 [4]: 500 ± 600 nM; chromatographic logD (CHI logD): 4.3
4 | O=C(Nc1cccc(S(F)(F)(F)(F)F)c1)c1cc(Cl)ccc1O [Compound 2c, 5-Chloro-2-hydroxy-N-(3-pentafluorosulfanylphenyl)benzamide] | 1380 ± 450 nM | 2 µM (≈ 0.747 µg/mL) | 1 µM (≈ 0.374 µg/mL) | 1 µM (≈ 0.374 µg/mL) | 2 µM (≈ 0.747 µg/mL) | 2 µM (≈ 0.747 µg/mL) | 0.5 µM (≈ 0.187 µg/mL) | 1 µM (≈ 0.374 µg/mL) | 1 µM (≈ 0.374 µg/mL) | 1 µM (≈ 0.374 µg/mL) | 1380 ± 400 nM | 346.7 | −3.33% | 15 | 2000 ± 100 nM | 1300 ± 700 nM | melting point: 197 °C
5 | CCc1ccc(NC(=O)c2cc(Cl)ccc2O)cc1 [Compound 2d] | 7100 ± 750 nM | – | – | – | – | – | – | – | – | – | 6130 ± 960 nM | – | – | – | 8400 ± 1100 nM | 6600 ± 2000 nM | –
6 | O=C(Nc1ccc(C(F)(F)F)cc1)c1cc(Cl)ccc1O [Compound 2e] | – | 2 µM (≈ 0.631 µg/mL) | 1 µM (≈ 0.316 µg/mL) | 1 µM (≈ 0.316 µg/mL) | 2 µM (≈ 0.631 µg/mL) | 2 µM (≈ 0.631 µg/mL) | 1 µM (≈ 0.316 µg/mL) | 1 µM (≈ 0.316 µg/mL) | 1 µM (≈ 0.316 µg/mL) | 1 µM (≈ 0.316 µg/mL) | – | 453.3 | 3.33% | 121.6 | 1100 ± 200 nM | 900 ± 200 nM | MIC (M. mycetomatis strains; strain MM55, read-out: MIC, MM55): 1.0 µM (≈ 0.316 µg/mL)
7 | O=C(Nc1cccc(C(F)(F)F)c1)c1cc(Cl)ccc1O [MMV665807] | – | – | – | – | – | – | – | – | – | – | – | – | – | – | – | – | IC50 [5]: 9930 nM
